# Tested on: TNFα
# Assay: Relative TNFα mRNA expression in IL-1β-stimulated MKN-45 cells (real-time PCR)
# Type: cell-based, human
# Settings: IL-1β-stimulated DMSO-treated cells = 100%, ACTB reference
# Description: RNA was extracted from the cells used in Example 2 according to the manufacturer's protocol for ABI Prism 6100 Nucleic Acid PrepStation (a nucleic acid isolation system, product of Applied Biosystems). More specifically, after removal of the culture supernatant and washing with 1 mL of PBS, 250 μL of Nucleic Acid Purification Lysis Solution (Part No. 4305895, Applied Biosystems) was added, and then agitated using a shaker for 2 to 3 minutes. The Lysis Solution containing the cell lysate was collected, and the total amount was transferred to the wells of RNA Purification Tray (Part No. 4305673, Applied Biosystems), which had been pre-wet with 40 μL of Nucleic Acid Purification Wash Solution I (Part No. 4305891, Applied Biosystems) beforehand. Aspiration (20% pressure) was performed for 2 minutes to adsorb the sample onto the RNA Purification Tray, followed by sequentially adding and aspirating (20% pressure, 2 min.) 500 μL of Wash Solution I, Nucleic Acid Purification (Part No. 4305891, Applied Biosystems), 400 μL of Wash Solution II, Nucleic Acid Purification (Part No. 4305890, product of Applied Biosystems), 400 μL of the Wash Solution II, and 300 μL of the Wash Solution II in that order. Aspiration (90% pressure) was performed for 5 minutes to remove the water content from the RNA Purification Trays. After addition of 150 μL of Elution Solution, Nucleic Acid Purification (Part No. 4305893, product of Applied Biosystems), aspiration (20% pressure) was performed for 2 minutes, while collecting the outflow. This was used as collected RNA solution.
# Absorbance of the collected RNA solution at 260 nm was measured using a microplate spectrophotometer (“SpectraMax Plus”, product of Molecular Devices) with an analysis software (“SOFTmaxPRO ver.3.1.2”, product of Molecular Devices), and the RNA concentration was determined from the absorbance. Likewise, absorbance at 280 nm was measured and the purity of the RNA was determined using the analysis software.
# cDNA was synthesized according to the manufacturer's protocol for TaqMan® Reverse Transcription Reagents (Part No. N808-0234, product of Applied Biosystems). More specifically, about 0.5 μg of RNA, 2.5 μL of 10×RT buffer, 5.5 μL of MgCl2 solution, 5 μL of dNTP mixture, 1.25 μL of random hexamer (primers), 0.5 μL of RNase inhibitor, and 0.63 μL of MultiScribe Reverse Transcriptase (product of Applied Biosystems) were added to each collected RNA sample in a tube, and DEPC-treated water was added to make a total volume of 25 μL and stirred. A reaction consisting of 25° C. for 10 minutes, 48° C. for 30 minutes, and 95° C. for 5 minutes was performed using a PCR thermal cycler (“TaKaRa PCR Thermal Cycler Dice”, product of Takara Bio Inc.) to prepare a cDNA solution.
# PCR was performed according to the manufacturer's protocol for TaqMan® Gene Expression Assays (product of Applied Biosystems). More specifically, 5 μL of TaqMan® Fast Universal PCR Master Mix (product of Applied Biosystems), 0.5 μL of TaqMan® Gene Expression Assays for the target gene (gene-specific probe and primer sets, product of Applied Biosystems), and 4.5 μL of the above-obtained cDNA solution were added to each sample and stirred. A PCR reaction consisting of heating at 95° C. for 20 seconds, followed by 40 cycles consisting of heating at 95° C. for 3 seconds and annealing and extension at 60° C. for 30 seconds was performed using a real-time PCR device (“Applied Biosystems 7500 Real-Time PCR System”) with SDS v1.4 Software (product of Applied Biosystems). Threshold cycle (Ct) values were calculated using the software.
# The Assay IDs of the TaqMan® Gene Expression Assays for the target genes used are as follows:
# The expression level of each gene was determined according to the following formula using the level of ACTB as a reference standard.
# (Relative mRNA expression level)=2̂−{(Ct value of the target gene)−(Ct value of ACTB)} […]
structure (smiles),measurement,value
COc1ccc(CC2SC(=S)NC2=O)c2c1N(CCC(C)C)C(=O)CC2 (stereo not shown) [Test Compound 965],"TNFa relative mRNA expression level, Mean",63.0%
